Values belong to the molecule of their own block, whether it stands above or below them.
System: 941728-121-R-J1-PDC complex spheroid viability
Assay: Anticancer human tumor 941728-121-R-J1-PDC patient-derived lung adenocarcinoma cell line growth inhibition [RAS]
Details: for IC50: curve of first compound; for viability, T/C: stronger effect = lower value
Description: RAS pathway inhibitors in Combinations in Complex Spheroids
A high-throughput screen of multi-cell type tumor spheroids was designed to identify active combinations of RAS pathway inhibitors and targeted small molecules. Complex spheroids include a stromal component modeled by human endothelial cells (HUVEC) and fibroblasts modeled by human mesenchymal stem cells (MSCs). The concentration ranges selected for each drug and investigational agent were based upon clinically achievable concentrations if the clinical Cmax of the agent was known.
Compounds. The drugs and investigational agents: abemaciclib (NSC768073), cobimetinib (NSC768068), divarasib (GDC6063, NSC841802), docetaxel (NSC628503), GDC-1971 (RLY-1971, NSC841576), gemcitabine (NSC613327), inavolisib (NSC800729), ipatasertib (NSC767898), KB-0742 (NSC834161), MRTX-1133 (NSC836407), osimertinib (NSC779217), RMC-4630 (NSC839698), RMC-6236 (NSC851965), RMC-6291 (NSC852671), Ro-3306 (NSC812927), sapanisertib (NSC764658), SN-38 (NSC673596), staurosporine (NSC755774), SY5609 (NSC837396), and tovorafenib (DAY101, NSC766906), were obtained from the National Cancer Institute (NCI) Developmental Therapeutics Program Chemical Repository. The FDA-approved anticancer drug set is available from the NCI Developmental Therapeutics Program. […] The stock solutions were prepared in dimethyl sulfoxide (DMSO, Sigma-Aldrich, St. Louis, MO, cat. D2650) at 800-fold the tested concentration and stored at -70 degrees C prior to their use. All drugs and investigational agents were tested over a range starting from a high concentration at or near the clinical Cmax and decreasing in half-log increments. If the clinical Cmax for an agent had not been determined, the highest concentration tested was 10 microM.
Cell Culture. All cells were maintained in an incubator at 37 degrees C and 5% CO2 with 95% humidity. The PDC lines were cultured according to standard operating procedures established by the NCI PDMR. All PDCs were thawed and cultured in Matrigel-coated flasks prepared with a working solution of 1X Ham's F-12 nutrient mix, without supplementation (Invitrogen, Waltham, MA, cat. 11765054), 100 U/mL penicillin-streptomycin (Invitrogen, cat. 15140122), and 2.5% Matrigel (Corning Inc., Corning, NY, cat. 354248) for the first three passages. The 362531-283-R-J2-PDC and 782815-120-R-J1-PDC lines were cultured in 6C/Colon 1B media, which includes advanced DMEM/F-12 (Thermo Fisher Scientific, cat. 12634028), 10 mM HEPES (Thermo Fisher Scientific, cat. 15630080), 1X GlutaMAX supplement (Thermo Fisher Scientific, cat. 35050061), 0.1 mg/mL primocin (InvivoGen, San Diego, CA, cat. ant-pm-2), 10% defined fetal bovine serum, heat inactivated (HyClone Laboratories Inc., Logan, UT, cat. SH30070.03HI), 50% L-WRN conditioned media (ATCC, cat. CRL-3276), 1.25 mM N-Acetyl-L-cysteine (Sigma-Aldrich, cat. A9165), 10 mM nicotinamide (Sigma-Aldrich, cat. N0636), 1X B-27 supplement (Thermo Fisher Scientific, cat. 17504044), 1X N-2 supplement (Thermo Fisher Scientific, cat. 17502048), 50 ng/mL human EGF (Thermo Fisher Scientific, cat. PHG0311), and 10 microM Y-27632 dihydrochloride (Tocris Bioscience, cat. 1254). The K12877-001-R-J1-PDC line was cultured in 6I media, which includes all 6C/Colon 1B media plus 10 ng/mL human FGF-10 (PeproTech, cat. 100-26), 1 ng/mL human FGF-2 (PeproTech, cat. 100-18B), 1 µM prostaglandin E2 (Tocris Bioscience, cat. 2296), […] hydrocortisone (Sigma-Aldrich, cat. H4001), and […] bovine insulin (Sigma-Aldrich, cat. I6634). The K86415-001-R-J1-PDC line was cultured in 6D media, which includes all 6C/Colon 1B media components minus the L-WRN conditioned media. The 485176-168-R4-J1-PDC was cultured in PANC media, which includes all 6C/Colon 1B media plus 100 ng/mL human FGF-10 (PeproTech, cat. 100-26), 500 nM SB-431542 (Selleckchem, cat. S1067), and 10 nM gastrin (Tocris Bioscience, cat. 3006). […]

[1] = second compound 0.0316 µM, first compound 0.0316 µM
[2] = second compound 0.0316 µM, first compound 0.1 µM
[3] = second compound 0.0316 µM, first compound 0.316 µM
[4] = second compound 0.0316 µM, first compound 1 µM
[5] = second compound 0.0316 µM, first compound 3.16 µM
[6] = second compound 0.0316 µM, first compound 10 µM
[7] = second compound 0.1 µM, first compound 0.0316 µM
[8] = second compound 0.1 µM, first compound 0.1 µM
[9] = second compound 0.1 µM, first compound 0.316 µM
[10] = second compound 0.1 µM, first compound 1 µM
[11] = second compound 0.1 µM, first compound 3.16 µM
[12] = second compound 0.1 µM, first compound 10 µM
[13] = second compound 0.316 µM, first compound 0.0316 µM
[14] = second compound 0.316 µM, first compound 0.1 µM
[15] = second compound 0.316 µM, first compound 0.316 µM
[16] = second compound 0.316 µM, first compound 1 µM
[17] = second compound 0.316 µM, first compound 3.16 µM
[18] = second compound 0.316 µM, first compound 10 µM
[19] = second compound 1 µM, first compound 0.0316 µM
[20] = second compound 1 µM, first compound 0.1 µM
[21] = second compound 1 µM, first compound 0.316 µM
[22] = second compound 1 µM, first compound 1 µM
[23] = second compound 1 µM, first compound 3.16 µM
[24] = second compound 1 µM, first compound 10 µM
[25] = second compound 3.16 µM, first compound 0.0316 µM
[26] = second compound 3.16 µM, first compound 0.1 µM
[27] = second compound 3.16 µM, first compound 0.316 µM
[28] = second compound 3.16 µM, first compound 1 µM
[29] = second compound 3.16 µM, first compound 3.16 µM
[30] = second compound 3.16 µM, first compound 10 µM
[31] = second compound 10 µM, first compound 0.0316 µM
[32] = second compound 10 µM, first compound 0.1 µM
[33] = second compound 10 µM, first compound 0.316 µM
[34] = second compound 10 µM, first compound 1 µM
[35] = second compound 10 µM, first compound 3.16 µM
[36] = second compound 10 µM, first compound 10 µM
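Also: spheroids exposed to compounds for 7 days before readout.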
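For viability, T/C in this document: 100% = DMSO vehicle control viability.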

IC50 (second compound 0.0316 µM): < 0.0316 µM | IC50 (second compound 0.1 µM): < 0.0316 µM | IC50 (second compound 0.316 µM): < 0.0316 µM | IC50 (second compound 1 µM): < 0.0316 µM | IC50 (second compound 3.16 µM): < 0.0316 µM | IC50 (second compound 10 µM): < 0.0316 µM
Compound: Cc1nc(N2CCC3(CC2)COC(C)C3N)c(CO)nc1Sc1ccnc(N)c1Cl (centres undefined) + C#Cc1c(F)ccc2cc(O)cc(-c3ncc4c(N5CC6CCC(C5)N6)nc(OCC56CCCN5CC(F)C6)nc4c3F)c12
viability, T/C [1]: 50.4% | viability, T/C [2]: 42.5% | viability, T/C [3]: 37.8% | viability, T/C [4]: 33.5% | viability, T/C [5]: 34% | viability, T/C [6]: 36.8% | viability, T/C [7]: 42.8% | viability, T/C [8]: 37.8% | viability, T/C [9]: 33.1% | viability, T/C [10]: 31.7% | viability, T/C [11]: 33% | viability, T/C [12]: 35.4% | viability, T/C [13]: 37.8% | viability, T/C [14]: 34.2% | viability, T/C [15]: 35.7% | viability, T/C [16]: 29.1% | viability, T/C [17]: 32% | viability, T/C [18]: 31% | viability, T/C [19]: 30.2% | viability, T/C [20]: 32.4% | viability, T/C [21]: 29.9% | viability, T/C [22]: 27.9% | viability, T/C [23]: 30.5% | viability, T/C [24]: 32.3% | viability, T/C [25]: 28.8% | viability, T/C [26]: 29.1% | viability, T/C [27]: 25.7% | viability, T/C [28]: 23.1% | viability, T/C [29]: 25.1% | viability, T/C [30]: 26.2% | viability, T/C [31]: 20.1% | viability, T/C [32]: 21.4% | viability, T/C [33]: 19.9% | viability, T/C [34]: 19.6% | viability, T/C [35]: 21.3% | viability, T/C [36]: 20.8%

IC50 (second compound 0.0316 µM): < 0.0316 µM | IC50 (second compound 0.1 µM): < 0.0316 µM | IC50 (second compound 0.316 µM): < 0.0316 µM | IC50 (second compound 1 µM): < 0.0316 µM | IC50 (second compound 3.16 µM): < 0.0316 µM | IC50 (second compound 10 µM): < 0.0316 µM
Compound: NC1c2ccccc2OC12CCN(c1cnc3c(N4CCCc5ncccc54)n[nH]c3n1)CC2 (centres undefined) + C#Cc1c(F)ccc2cc(O)cc(-c3ncc4c(N5CC6CCC(C5)N6)nc(OCC56CCCN5CC(F)C6)nc4c3F)c12
viability, T/C [1]: 37.8% | viability, T/C [2]: 34.7% | viability, T/C [3]: 30.6% | viability, T/C [4]: 35.9% | viability, T/C [5]: 35.5% | viability, T/C [6]: 43% | viability, T/C [7]: 34.8% | viability, T/C [8]: 33% | viability, T/C [9]: 31.6% | viability, T/C [10]: 35.6% | viability, T/C [11]: 34.2% | viability, T/C [12]: 36.5% | viability, T/C [13]: 30.3% | viability, T/C [14]: 30.8% | viability, T/C [15]: 32.8% | viability, T/C [16]: 29.8% | viability, T/C [17]: 32% | viability, T/C [18]: 37% | viability, T/C [19]: 28.5% | viability, T/C [20]: 27.6% | viability, T/C [21]: 31.4% | viability, T/C [22]: 29.4% | viability, T/C [23]: 28.8% | viability, T/C [24]: 29.7% | viability, T/C [25]: 24.1% | viability, T/C [26]: 24% | viability, T/C [27]: 24.4% | viability, T/C [28]: 24.6% | viability, T/C [29]: 23.4% | viability, T/C [30]: 24.6% | viability, T/C [31]: 20.9% | viability, T/C [32]: 18.3% | viability, T/C [33]: 19.3% | viability, T/C [34]: 18.8% | viability, T/C [35]: 17.8% | viability, T/C [36]: 18.4%
